The data set can be described thus: in vitro. The settings on record: human; for Papp at 120 min, 10 µM: Caco-2, pH 7.4, Mean ± SE Papp, Caco-2, 10 μM. An excerpt: Next, we tested the permeation of the compounds across polarized Caco-2 cell monolayers, a method that is widely used as an in vitro model of the human small intestinal mucosa to predict the absorption of orally administered drugs ([63], [64]). With noninvasive intestinal infections, there is no need to establish a high plasma concentration. Since a high rate of uptake through the host gut lining could increase compound toxicity, we sought to reduce gut absorption. […] Both apical-to-basal and basal-to-apical permeation values were measured to obtain information about efflux. […] The efflux machinery is currently unknown.
Passage 36 Caco-2 cells were used. The cells were cultured in Dulbecco’s modified Eagle’s medium (DMEM; 5 ml of 100 mM sodium pyruvate, 5 ml of 100× nonessential amino acids, 5 ml of penicillin-streptomycin, and 100 ml of heat-inactivated fetal bovine serum added to 385 ml of DMEM aseptically and mixed thoroughly), pH 7.4, at 37°C in 5% CO2. DMEM (250 μl) was added to the basal compartment of 96-well multiscreen Caco-2 cell plate consisting of high-pore-density polycarbonate (Millipore) with a 0.4-μm pore size and a 0.11-cm^2 active membrane area. The cells were seeded at a density of 12,000 cells/well (0.16 × 10^6 cells/ml) in the apical wells, with one well containing only medium as blank. The Caco-2 cell plate was placed in a CO2 incubator at 37°C for cell proliferation. On the day of assay, the medium was removed, washed twice with Hanks balanced salt solution (HBSS) buffer supplemented with 2% bovine serum albumin (BSA), pH 7.4, and incubated with the HBSS buffer for 30 min at 37°C. Wells with transepithelial electrical resistance values of greater than 230 Ω · cm^2 were selected for the experiments. […] The assay was performed in duplicate.
Seventy-five microliters of the test compounds was added to the apical wells, and 250 μl of HBSS buffer with 2% BSA was added to the basal wells. The plate was incubated in a CO2 incubator with shaking on a plate shaker at 150 rpm for 120 min, after which 25 μl of the basal samples was collected and processed.
Two hundred fifty microliters of test compounds was added to the basal wells, and 75 μl of HBSS buffer with 2% BSA was added to the apical wells. The plate was incubated in a CO2 incubator with shaking on a plate shaker at 150 rpm for 120 min, after which 25 μl of the apical samples was collected and processed.
For sample processing, a single-point calibration curve in HBSS buffer with 2% BSA was used. Donor samples were diluted 1:1 with HBSS containing 2% BSA, and receiver samples were diluted with 1:1 HBSS buffer and precipitated with 200 μl of acetonitrile containing internal standard. The samples were vortexed for 5 min at 1,000 rpm and centrifuged at 4,000 rpm for 10 min. One hundred microliters of the supernatant was diluted with 200 μl of water and analyzed by LC-MS/MS (with a Shimadzu ultrafast liquid chromatograph and an API 4000 LC-MS/MS system).
The apparent permeation coefficients (Papp) were calculated as Papp = (dQ/dT) × (1/C0) × (1/A), where dQ is the amount permeated to the receiver compartment of the 96-well plate, dT is the time of compound incubation, C0 is the initial compound concentration in the donor compartment of the well, and A is the surface area of the monolayer.

One may read the efflux ratio as the permeability from basolateral to apical divided by that in the opposite direction, in the common usage. By Papp is commonly meant a coefficient for how fast a substance crosses the barrier. A lower Papp goes with slow passage. With `CC(C)NCC(O)COc1cccc2ccccc12` (stereo not drawn) [Propranolol, reference compound], the efflux ratio at 120 min, 10 µM (Caco-2, pH 7.4) was found to be 0.36. Also, the Papp at 120 min, 10 µM came to 22.6 ± 1.1 ×10⁻⁶ cm/s (apical to basal) and 8.14 ± 0.28 ×10⁻⁶ cm/s (basal to apical).

The values are drawn from article PMC7508583, “Discovery and Preclinical Development of Antigiardiasis Fumagillol Derivatives” (Antimicrobial Agents and Chemotherapy, 2020).
